Experimental data reported in paper PMC10726355, “Small Molecule Ligands of the BET-like Bromodomain, SmBRD3, Affect Schistosoma mansoni Survival, Oviposition, and Development” (Journal of Medicinal Chemistry, 2023).
Entries after “also recorded” stand apart in the source; their conditions may differ. Where two headings read alike, the source gives them in different places.

Experiments:
SmBRD3(1,2) = SmBRD3(1,2) (Schistosoma mansoni, UniProt A0A5K4ESD7); assay: biochemical; type: binding; settings: for N number, binding to SmBRD3(1,2): ITC stoichiometry, n=1 ± error of curve fit
SmBRD3(1,2), sequence (A0A5K4ESD7 entry or part of it): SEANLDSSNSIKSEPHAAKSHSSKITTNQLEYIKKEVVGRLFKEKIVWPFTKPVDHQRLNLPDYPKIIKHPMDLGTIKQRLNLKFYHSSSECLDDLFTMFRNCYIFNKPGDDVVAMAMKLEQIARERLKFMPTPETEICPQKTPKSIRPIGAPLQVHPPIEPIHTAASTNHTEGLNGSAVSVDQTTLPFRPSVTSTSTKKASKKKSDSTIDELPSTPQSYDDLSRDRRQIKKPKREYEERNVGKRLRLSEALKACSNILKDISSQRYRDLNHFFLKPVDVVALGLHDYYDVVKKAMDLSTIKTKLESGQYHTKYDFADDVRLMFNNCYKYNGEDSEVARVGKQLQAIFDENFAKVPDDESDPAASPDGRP

SmBRD3(2) = SmBRD3(2) (Schistosoma mansoni, UniProt A0A5K4ESD7); assay: biochemical; type: binding; settings: for N number, binding to SmBRD3(2), Repeat 1 / N number, binding to SmBRD3(2), Repeat 2 / N number, binding to SmBRD3(2), Mean / N number, binding to SmBRD3(2), Repeat 3: ITC stoichiometry; for N number, binding to SmBRD3(2), Mean: mean of repeats
SmBRD3(2), sequence (A0A5K4ESD7 entry or part of it): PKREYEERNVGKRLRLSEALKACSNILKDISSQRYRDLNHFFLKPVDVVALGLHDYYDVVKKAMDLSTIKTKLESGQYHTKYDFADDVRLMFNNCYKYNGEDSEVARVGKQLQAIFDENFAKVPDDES

CAD solubility assay = type: physicochemical; settings: phosphate buffered saline, pH 7.4, phosphate buffered saline at pH 7.4; read-out: Aqueous Solubility by CAD
Protocol: A CAD solubility assay was carried out by Physchem Team, Discovery Analytical, NCE Molecular Discovery at GSK. 5 μL of 10 mM DMSO stock solution was diluted to 100 μL with pH 7.4 phosphate buffered saline, equilibrated for 1 h at room temperature, and filtered through Millipore MultiscreenHTS-PCF filter plates (MSSL BPC). The filtrate was quantified using a suitably calibrated charged aerosol detector.[45]

chromLogD assay = type: physicochemical; settings: reversed phase HPLC column (Gemini NX C18), pH 7.4
Protocol: Lipophilicity: a chromLogD assay was carried out by the Physchem Team, Discovery Analytical, NCE Molecular Discovery at GSK. The chromatographic hydrophobicity index (CHI)[46],[47] values were measured using reversed phase HPLC column (50 × 2 mm […] Gemini NX C18, Phenomenex, UK) with fast acetonitrile gradient at starting mobile phase of pHs 2, 7.4, or 10.5. CHI values were derived directly from the gradient retention times using calibration parameters for standard compounds. The CHI value approximates to the volume % organic concentration when the compound elutes. CHI was linearly transformed into a chromLogD[48] value by least-squares fitting of experimental CHI values to calculated cLogP values for over 20000 research compounds.

S. mansoni adult worms = assay: Ex vivo adult worm screening (motility, IVLEs, pairing); parameters: species or system Schistosoma mansoni; settings: 20 μM in 0.2% DMSO; 72 h
Protocol: S. mansoni adult worms were recovered by hepatic portal vein perfusion from TO mice (Mus musculus HsdOLa:TO - Tuck Ordinary; Envigo, UK) that were percutaneously infected 7 weeks earlier with 180 cercariae.[65],[71] Following perfusion, schistosomes were washed and processed as previously described.[65],[66] Subsequently, schistosome pairs were seeded into 48 well tissue culture plates (1 worm pair/well, in duplicate) and dosed with the compounds (20 μM in 0.2% DMSO). DMSO (0.2%) and praziquantel (10 μM in 0.1% DMSO) were also included as negative and positive controls, respectively. Parasite motility was assessed by a digital image processing-based system (WormassayGP2),[66] modified after Wormassay.[72]In vitro laid eggs (IVLEs) were enumerated and the presence or absence of paired worms was noted.

S. mansoni miracidia = assay: Ex vivo miracidia to sporocyst transformation screening; parameters: species or system Schistosoma mansoni; settings: 0.5-25 μM in 1% DMSO; 48 h; 26 °C
Protocol: S. mansoni miracidia were obtained by hatching of schistosome eggs as previously described.[73] The resulting miracidial suspension was collected, washed with Chernin’s balanced salt solution (CBSS),[73] and enumerated prior to being used for ex vivo miracidia to sporocyst screens as previously reported.[66],[73] Each compound was tested at 0.5, 2.0, 5.0, 10, and 25 μM final concentrations (in 1% DMSO). Each treatment was set up in duplicate (15–25 miracidia/well). Each titration was performed in three independent experiments (two technical replicates per data point). Parasites cultured in CBSS (containing 1% DMSO) were included as negative controls. After 48 h incubation at 26 °C in the dark, dead, fully transformed and partially transformed miracidia were enumerated as previously described.[74],[75]

S. mansoni schistosomula = assay: Ex vivo schistosomula screening (Roboworm high content imaging); parameters: species or system Schistosoma mansoni; settings: 72 h; for EC50: Schistosoma mansoni, ethyl esters (R=Et), 95% CI in brackets
Protocol: A high-throughput imaging platform that quantifies both phenotype and motility ex vivo, was used to screen compounds against schistosomula; their effects were assessed as previously described.[20] Briefly, the schistosomula stage of S. mansoni was obtained by mechanical transformation of cercariae, dispensed into 384-well tissue culture plates, and dosed with 20 μM (Figure 7) or 10 μM (Figure S48) of each compound. Following 72 h coincubation of the schistosomula and compound, the plate was subjected to high content imaging to quantify the effects of each compound.
S. mansoni schistosomula were obtained by mechanical transformation from cercariae as previously described,[64] distributed in 384-well tissue culture plates (PerkinElmer, catalogue number 6007460) at 120 parasites/well and dosed with the selected compounds as previously reported.[65]−[68] For this study, each compound (as 10 mM DMSO stock solution) was initially tested at two concentration points (20 and 10 μM final concentration, in duplicates) in at least four independent screens (Z′ scores above 0.35).[69] Each screen contained both positive (10 μM auranofin (AUR) in 0.625% DMSO) and negative (0.625% DMSO) controls. […] Following 72 h schistosomula/compound coincubation, the plate was analyzed by the Roboworm platform.[70] EC50 values were calculated from the titrated concentrations by nonlinear regression, after log transformation of concentrations and data normalization using GraphPad Prism 7.02.

[1] = SmBRD3(1,2) Kd, ITC, n = 1 ± error of the curve fit
[2] = ITC, single run ± error of curve fit, Repeat 1
[3] = ITC, single value ± error of the curve fit or mean of 2-3 repeats ± s.e.m.
[4] = ITC, read-out: SmBRD3(2) pKd (converted)
[5] = ITC, single run ± error of curve fit, Repeat 2, read-out: SmBRD3(2) Kd, Repeat 2
[6] = read-out: SmBRD3(2) Kd, Repeat 1
[7] = ITC, single run ± error of curve fit, Repeat 3, read-out: SmBRD3(2) Kd, Repeat 3
[8] = 20 μM (Figure 7) or 10 μM (Figure S48)
[9] = read-out: Schistosomla Movement EC50
[10] = read-out: Schistosomla Phenotype EC50

Cc1noc(C)c1-c1cc(O)cc(C(O)c2ccc(F)cc2)c1 (centres unmarked) [Compound 3, OXFBD02-F, reference compound]
N number, binding to SmBRD3(1,2) (SmBRD3(1,2)): 1.05 ± 3.9e-2
Kd (SmBRD3(1,2); [1]): 1750 ± 301 nM
Kd (SmBRD3(1,2); SmBRD3(1,2) pKd, ITC): 1580 nM
SmBRD3(2) Kd, Repeat 1 (SmBRD3(2); [2]): No binding
SmBRD3(2) Kd (SmBRD3(2); [3]): No detectable binding

CC(=O)N1c2ccc(-c3ccc(C(=O)O)cc3)cc2[C@@H](Nc2ccc3ccsc3c2)C[C@H]1C [Compound 10, 4-{(2R,4S)-1-Acetyl-4-[(1-benzothiophen-6-yl)amino]-2-methyl-1,2,3,4-tetrahydroquinolin-6-yl}benzoic Acid]
SmBRD3(1,2) Kd (SmBRD3(1,2); ITC, n = 1 ± error of the curve fit): No detectable binding
SmBRD3(2) Kd (SmBRD3(2)): No detectable binding; also recorded: does not bind
SmBRD3(2) Kd, Repeat 1 (SmBRD3(2)): No binding
solubility at 1 h (CAD solubility assay): > 259 µM
chromatographic logD (chromLogD assay): 2.83

CC(=O)N1c2ccc(-c3ccc(C(=O)O)cc3)cc2[C@H](Nc2ccc3ccoc3c2)C[C@@H]1C [Compound 11, 4-((2S,4R)-1-Acetyl-4-[(1-benzofuran-6-yl)amino]-2-methyl-1,2,3,4-tetrahydroquinolin-6-yl)benzoic Acid]
N number, binding to SmBRD3(2), Repeat 1 (SmBRD3(2); Repeat 1): 1.54 ± 2.5e-2
N number, binding to SmBRD3(2), Repeat 2 (SmBRD3(2); Repeat 2): 1.49 ± 3.0e-2
N number, binding to SmBRD3(2), Mean (SmBRD3(2)): 1.52
Kd (SmBRD3(2); [4]): 1260 nM
Kd (SmBRD3(2); [5]): 1300 ± 236 nM
Kd (SmBRD3(2); read-out: SmBRD3(2) Kd): 1180 ± 120 nM
Kd (SmBRD3(2); [6]): 1060 ± 164 nM

CC(=O)N1c2ccc(-c3ccc(C(=O)O)cc3)cc2[C@H](Nc2ccc3sccc3c2)C[C@@H]1C [Compound 12, 4-((2S,4R)-1-Acetyl-4-[(1-benzothiophen-5-yl)amino]-2-methyl-1,2,3,4-tetrahydroquinolin-6-yl)benzoic Acid]
N number, binding to SmBRD3(2), Repeat 1 (SmBRD3(2); Repeat 1): 1.51 ± 1.8e-2
N number, binding to SmBRD3(2), Repeat 2 (SmBRD3(2); Repeat 2): 1.55 ± 1.4e-2
N number, binding to SmBRD3(2), Mean (SmBRD3(2)): 1.53
Kd (SmBRD3(2); [4]): 501 nM
Kd (SmBRD3(2); [5]): 543 ± 60.3 nM
Kd (SmBRD3(2); read-out: SmBRD3(2) Kd): 553 ± 9.5 nM
Kd (SmBRD3(2); [6]): 562 ± 79.1 nM

CC(=O)N1c2ccc(-c3ccc(C(=O)O)cc3)cc2[C@H](Nc2ccc3[nH]ccc3c2)C[C@@H]1C [Compound 13, 4-{(2S,4R)-1-Acetyl-4-[(1H-indol-5-yl)amino]-2-methyl-1,2,3,4-tetrahydroquinolin-6-yl}benzoic Acid]
N number, binding to SmBRD3(2), Repeat 1 (SmBRD3(2); Repeat 1): 1.52 ± 2.0e-2
N number, binding to SmBRD3(2), Repeat 2 (SmBRD3(2); Repeat 2): 1.71 ± 1.8e-2
N number, binding to SmBRD3(2), Repeat 3 (SmBRD3(2); Repeat 3): 1.60 ± 1.6e-2
N number, binding to SmBRD3(2), Mean (SmBRD3(2)): 1.61
Kd (SmBRD3(2); [4]): 631 nM
Kd (SmBRD3(2); [5]): 652 ± 78.5 nM
Kd (SmBRD3(2); [7]): 672 ± 76 nM
Kd (SmBRD3(2); read-out: SmBRD3(2) Kd): 651 ± 12.7 nM
Kd (SmBRD3(2); [6]): 628 ± 94.9 nM

CC(=O)N1c2ccc(-c3ccc(C(=O)O)cc3)cc2[C@H](Nc2ccc3ncsc3c2)C[C@@H]1C [Compound 14, 4-{(2S,4R)-1-Acetyl-4-[(1,3-benzothiazol-6-yl)amino]-2-methyl-1,2,3,4-tetrahydroquinolin-6-yl}benzoic acid]
N number, binding to SmBRD3(2), Repeat 1 (SmBRD3(2); Repeat 1): 1.42 ± 2.4e-2
N number, binding to SmBRD3(2), Repeat 2 (SmBRD3(2); Repeat 2): 1.54 ± 0.101
N number, binding to SmBRD3(2), Repeat 3 (SmBRD3(2); Repeat 3): 1.49 ± 5.4e-2
N number, binding to SmBRD3(2), Mean (SmBRD3(2)): 1.48
Kd (SmBRD3(2); [4]): 1260 nM
Kd (SmBRD3(2); ITC, single run ± error of curve fit, Repeat 1, read-out: SmBRD3(2) Kd, Repeat 1): 1010 ± 160 nM
Kd (SmBRD3(2); [5]): 1270 ± 779 nM
Kd (SmBRD3(2); [7]): 1270 ± 349 nM
Kd (SmBRD3(2); read-out: SmBRD3(2) Kd): 1180 ± 86.7 nM
solubility at 1 h (CAD solubility assay): ≥ 260 µM
chromatographic logD (chromLogD assay): 1.78

CCOC(=O)c1ccc(-c2ccc3c(c2)[C@H](Nc2ccc4ccsc4c2)C[C@H](C)N3C(C)=O)cc1 [Compound 16, Ethyl 4-{(2S,4R)-1-Acetyl-4-[(1-benzothiophen-6-yl)amino]-2-methyl-1,2,3,4-tetrahydroquinolin-6-yl}benzoate]
SmBRD3(2) Kd (SmBRD3(2)): No binding
SmBRD3(2) Kd, Repeat 1 (SmBRD3(2)): No binding
Effect on adult worm movement (S. mansoni adult worms): substantial effects
Effect on miracidia to sporocyst transformation (S. mansoni miracidia): concentration-dependent inhibition

CCOC(=O)c1ccc(-c2ccc3c(c2)[C@H](Nc2ccc4ccoc4c2)C[C@H](C)N3C(C)=O)cc1 [Compound 18, Ethyl 4-{(2S,4R)-1-Acetyl-4-[(1-benzofuran-6-yl)amino]-2-methyl-1,2,3,4-tetrahydroquinolin-6-yl}benzoate]
SmBRD3(2) Kd (SmBRD3(2)): No binding
SmBRD3(2) Kd, Repeat 1 (SmBRD3(2)): No binding
Antischistosomula activity at 10 μM (S. mansoni schistosomula): active
Effect on schistosomula motility (S. mansoni schistosomula; [8]): substantial effects
EC50 (S. mansoni schistosomula; [9]): 3920 nM
EC50 (S. mansoni schistosomula; [10]): 2430 nM
Effect on adult worm movement (S. mansoni adult worms): substantial effects

CCOC(=O)c1ccc(-c2ccc3c(c2)[C@H](Nc2ccc4sccc4c2)C[C@H](C)N3C(C)=O)cc1 [Compound 19]
SmBRD3(2) Kd (SmBRD3(2)): No binding
SmBRD3(2) Kd, Repeat 1 (SmBRD3(2)): No binding

CCOC(=O)c1ccc(-c2ccc3c(c2)[C@H](Nc2ccc4[nH]ccc4c2)C[C@H](C)N3C(C)=O)cc1 [Compound 20, Ethyl 4-{(2S,4R)-1-Acetyl-4-[(1H-indol-5-yl)amino]-2-methyl-1,2,3,4-tetrahydroquinolin-6-yl}benzoate]
SmBRD3(2) Kd (SmBRD3(2)): No binding
SmBRD3(2) Kd, Repeat 1 (SmBRD3(2)): No binding
Antischistosomula activity at 10 μM (S. mansoni schistosomula): active
EC50 (S. mansoni schistosomula; [9]): 1810 nM
EC50 (S. mansoni schistosomula; [10]): 2970 nM
Effect on adult worm movement (S. mansoni adult worms): substantial effects

CCOC(=O)c1ccc(-c2ccc3c(c2)[C@H](Nc2ccc4ncsc4c2)C[C@H](C)N3C(C)=O)cc1 [Compound 21, Ethyl 4-{(2S,4R)1-Acetyl-4-[(1,3-benzothiazol-6-yl)amino]-2-methyl-1,2,3,4-tetrahydroquinolin-6-yl}benzoate]
SmBRD3(2) Kd (SmBRD3(2)): No binding
SmBRD3(2) Kd, Repeat 1 (SmBRD3(2)): No binding
Antischistosomula activity at 10 μM (S. mansoni schistosomula): active
Effect on schistosomula motility (S. mansoni schistosomula; [8]): greatest effects
Effect on schistosomula phenotype (S. mansoni schistosomula; [8]): greatest effects
EC50 (S. mansoni schistosomula; [9]): 2850 nM
EC50 (S. mansoni schistosomula; [10]): 2140 nM
Effect on adult worm movement (S. mansoni adult worms): substantial effects

Cc1noc(C)c1-c1cc(O)cc(C(O)c2cccnc2)c1 (centres unmarked) [OXFBD04 (4), OXFBD04, reference compound]
N number, binding to SmBRD3(1,2) (SmBRD3(1,2)): 1.39 ± 2.0e-2
Kd (SmBRD3(1,2); [1]): 2950 ± 261 nM
Kd (SmBRD3(1,2); SmBRD3(1,2) pKd, ITC): 3160 nM
SmBRD3(2) Kd, Repeat 1 (SmBRD3(2); [2]): No binding
SmBRD3(2) Kd (SmBRD3(2); [3]): No detectable binding
Effect on miracidia to sporocyst transformation (S. mansoni miracidia): modest effects
